One may read the IC50 as the concentration that inhibits the measured activity by half. In general, Ki refers to a measure of affinity in units of concentration, obtained from inhibition or displacement.

Molecules are shown by their SMILES.

Assay [1] has as its target T1, AMPKα2 (recombinant AMPKα2β1γ1) (Homo sapiens, UniProt P54619+P54646+Q9Y478).
T1 construct: gene PRKAA2; recombinant AMPKα2β1γ1 heterotrimer (#P48-10H, SignalChem); with AMPKβ1, AMPKγ1
The assay is described as follows: radiometric in vitro kinase assay with SAMS peptide and […]-ATP. The format is biochemical.

The target of assay [2] is T2, AMPKα1 (recombinant AMPKα1β1γ1) (Homo sapiens, UniProt Q13131).
T2 construct: gene PRKAA1; recombinant AMPKα1β1γ1 heterotrimer (#P47-10H, SignalChem); with AMPKβ1, AMPKγ1
Kind of assay: radiometric in vitro kinase assay with SAMS peptide and […]-ATP; Lineweaver-Burk; IC50 […]. The format is biochemical.

T1 sequence (P54646 whole entry): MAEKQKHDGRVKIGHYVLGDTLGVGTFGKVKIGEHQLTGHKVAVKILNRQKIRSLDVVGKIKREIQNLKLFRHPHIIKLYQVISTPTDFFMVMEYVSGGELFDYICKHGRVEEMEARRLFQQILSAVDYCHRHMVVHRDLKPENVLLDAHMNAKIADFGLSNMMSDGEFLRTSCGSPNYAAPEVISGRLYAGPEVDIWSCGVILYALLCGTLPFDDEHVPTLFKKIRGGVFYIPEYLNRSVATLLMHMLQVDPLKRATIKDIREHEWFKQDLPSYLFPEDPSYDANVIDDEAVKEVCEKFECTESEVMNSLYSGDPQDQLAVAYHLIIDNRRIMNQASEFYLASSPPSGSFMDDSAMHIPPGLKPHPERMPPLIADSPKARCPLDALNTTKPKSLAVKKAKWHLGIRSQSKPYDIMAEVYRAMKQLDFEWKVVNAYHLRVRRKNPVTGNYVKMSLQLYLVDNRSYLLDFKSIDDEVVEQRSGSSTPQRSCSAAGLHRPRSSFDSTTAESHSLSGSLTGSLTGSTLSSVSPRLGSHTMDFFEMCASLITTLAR
T1 sequence (Q9Y478 2-270 partner): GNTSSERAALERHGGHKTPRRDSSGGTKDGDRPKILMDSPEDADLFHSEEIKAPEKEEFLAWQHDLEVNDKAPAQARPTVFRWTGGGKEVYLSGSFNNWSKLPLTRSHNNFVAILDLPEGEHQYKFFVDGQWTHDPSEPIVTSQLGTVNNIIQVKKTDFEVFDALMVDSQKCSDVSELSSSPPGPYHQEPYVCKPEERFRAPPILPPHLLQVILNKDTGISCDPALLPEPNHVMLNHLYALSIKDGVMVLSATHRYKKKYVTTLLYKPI
T1 sequence (P54619 whole entry partner): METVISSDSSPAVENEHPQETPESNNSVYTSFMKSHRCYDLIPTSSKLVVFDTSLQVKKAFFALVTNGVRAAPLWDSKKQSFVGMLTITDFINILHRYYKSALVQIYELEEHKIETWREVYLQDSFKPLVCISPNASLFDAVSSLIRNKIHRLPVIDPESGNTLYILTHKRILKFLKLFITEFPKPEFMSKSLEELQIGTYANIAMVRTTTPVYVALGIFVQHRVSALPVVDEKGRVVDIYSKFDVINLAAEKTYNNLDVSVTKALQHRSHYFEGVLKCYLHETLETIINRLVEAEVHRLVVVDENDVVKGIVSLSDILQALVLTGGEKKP
T2 sequence (Q13131 whole entry): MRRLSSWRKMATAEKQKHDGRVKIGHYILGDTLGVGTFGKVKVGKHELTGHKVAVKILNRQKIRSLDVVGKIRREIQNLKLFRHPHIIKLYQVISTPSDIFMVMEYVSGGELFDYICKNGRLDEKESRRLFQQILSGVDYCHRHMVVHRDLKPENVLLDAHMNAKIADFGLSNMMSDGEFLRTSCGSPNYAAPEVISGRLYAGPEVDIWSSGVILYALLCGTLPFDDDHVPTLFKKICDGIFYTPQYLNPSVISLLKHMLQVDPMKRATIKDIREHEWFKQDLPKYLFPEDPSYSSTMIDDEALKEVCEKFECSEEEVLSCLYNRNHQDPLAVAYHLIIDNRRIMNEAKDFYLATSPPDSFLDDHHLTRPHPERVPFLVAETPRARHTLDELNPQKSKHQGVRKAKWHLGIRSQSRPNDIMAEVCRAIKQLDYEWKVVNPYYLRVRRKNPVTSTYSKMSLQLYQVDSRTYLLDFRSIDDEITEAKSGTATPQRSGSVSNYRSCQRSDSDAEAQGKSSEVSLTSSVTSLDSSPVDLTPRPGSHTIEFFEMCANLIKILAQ
T2 sequence (Q9Y478 2-270 partner): as the sequence (Q9Y478 2-270 partner) above
T2 sequence (P54619 whole entry partner): as the sequence (P54619 whole entry partner) above

Consider `CN[C@@H]1C(O)[C@H]2O[C@@](C)([C@@H]1OC)n1c3ccccc3c3c4c(c5c6ccccc6n2c5c31)C(=O)NC4` (some centres unmarked) [5-OH-S, 5′-hydroxy-staurosporine], for which, in assay [1], the 50% inhibitory concentration (IC50) was found to be 583 nM. The Ki in assay [2] is 347 nM.

The record behind these values is paper PMC5830883, “A Functional Signature Ontology (FUSION) screen detects an AMPK inhibitor with selective toxicity toward human colon tumor cells” (Scientific Reports, 2018).
